In US10590114B2, “Compounds, compositions, and methods” (Denali Therapeutics Inc., priority 2016, dated 2020):

Legend:
MDR1 (P-glycoprotein) = MDR1 (P-glycoprotein) (Homo sapiens (Human), UniProt P08183); assay: MDR1-MDCK permeability, bidirectional assay; assay type: in vitro ADME; conditions: MDR1-MDCK cells, efflux ratio, 1 μM, HBSS pH 7.4
Procedure: The blood brain barrier (BBB) separates circulating blood from the extracellular fluid of the central nervous system (CNS). The passive membrane permeability (Papp) and MDR1 (P-glycoprotein) substrate efflux potential were determined using the MDR1-MDCK cell line as an in vitro model of the effective permeability of a compound through the BBB. A bidirectional assay was conducted in pre-plated MDR1-MDCK cells using a 12 or 96-well plate in the absence or presence of MDR1 inhibitor (GF120918 or Valspodar). Assays were run in duplicate in transport buffer (HBSS, pH 7.4) for 90 or 120 min (minutes) at 37° C., using a test article concentration of 1 μM. […] Papp (apparent permeability expressed in cm/sec [centimeter/second]) values were calculated according to the following equation:
[formula] where VR is the solution volume in the receiver chamber (apical or basolateral side), Area is the surface area for the insert membrane), Time is incubation time expressed in seconds, CR is the peak area ratio (analyte/IS) in the receiver chamber, CA is the average of the initial and final concentrations in the donor chamber, and CO is the initial peak area ratio in the donor chamber. Papp was determined in both the apical to basolateral (A→B) and basolateral to apical (B→A) directions. […]

[1] = Metabolic stability in human liver microsomes; assay type: in vitro ADME; conditions: Table 5; 1 μM compound, 0.5 mg/mL protein, projected human hepatic clearance, well-stirred model
Procedure: Metabolic stability of compounds was evaluated in human liver microsomes (from Corning or XenoTech, LLC) using a 96-well plate assay format. Compounds were incubated at 37° C. at 1 μM final concentration in the microsomal matrix (0.5 mg/mL total protein) in the presence or absence of NADPH cofactor. An NADPH regenerating system, comprised of NADP, MgCl2, isocitric acid, and isocitrate dehydrogenase, was used in the assay. Enzymatic reactions were conducted for 0, 5, 10, 20, 30, or 60 min before termination by addition of acetonitrile containing tolbutamide and labetalol internal standards (100 ng/mL). After shaking for 10 min, plates were subjected to centrifugation (4000 rpm at 4° C.) for 20 min and supernatants were mixed 1:3 with HPLC grade water. Samples were analyzed by LC-MS/MS using appropriate MRM transitions for each analyte and internal standard (IS). Analyte/IS peak area ratios were used to determine percent compound remaining at each time point. Intrinsic clearance (Clint; expressed as mL·min^−1·mg^−1) was calculated from the first order elimination constant (k, min^−1) of test article decay and the volume of the incubation. These values were scaled to intrinsic organ clearance (Clint) using human specific scaling factors (48.8 mg microsomal protein per g liver; 25.7 g liver per kg body weight). […]

MDR1 (P-glycoprotein), sequence (P08183 whole entry): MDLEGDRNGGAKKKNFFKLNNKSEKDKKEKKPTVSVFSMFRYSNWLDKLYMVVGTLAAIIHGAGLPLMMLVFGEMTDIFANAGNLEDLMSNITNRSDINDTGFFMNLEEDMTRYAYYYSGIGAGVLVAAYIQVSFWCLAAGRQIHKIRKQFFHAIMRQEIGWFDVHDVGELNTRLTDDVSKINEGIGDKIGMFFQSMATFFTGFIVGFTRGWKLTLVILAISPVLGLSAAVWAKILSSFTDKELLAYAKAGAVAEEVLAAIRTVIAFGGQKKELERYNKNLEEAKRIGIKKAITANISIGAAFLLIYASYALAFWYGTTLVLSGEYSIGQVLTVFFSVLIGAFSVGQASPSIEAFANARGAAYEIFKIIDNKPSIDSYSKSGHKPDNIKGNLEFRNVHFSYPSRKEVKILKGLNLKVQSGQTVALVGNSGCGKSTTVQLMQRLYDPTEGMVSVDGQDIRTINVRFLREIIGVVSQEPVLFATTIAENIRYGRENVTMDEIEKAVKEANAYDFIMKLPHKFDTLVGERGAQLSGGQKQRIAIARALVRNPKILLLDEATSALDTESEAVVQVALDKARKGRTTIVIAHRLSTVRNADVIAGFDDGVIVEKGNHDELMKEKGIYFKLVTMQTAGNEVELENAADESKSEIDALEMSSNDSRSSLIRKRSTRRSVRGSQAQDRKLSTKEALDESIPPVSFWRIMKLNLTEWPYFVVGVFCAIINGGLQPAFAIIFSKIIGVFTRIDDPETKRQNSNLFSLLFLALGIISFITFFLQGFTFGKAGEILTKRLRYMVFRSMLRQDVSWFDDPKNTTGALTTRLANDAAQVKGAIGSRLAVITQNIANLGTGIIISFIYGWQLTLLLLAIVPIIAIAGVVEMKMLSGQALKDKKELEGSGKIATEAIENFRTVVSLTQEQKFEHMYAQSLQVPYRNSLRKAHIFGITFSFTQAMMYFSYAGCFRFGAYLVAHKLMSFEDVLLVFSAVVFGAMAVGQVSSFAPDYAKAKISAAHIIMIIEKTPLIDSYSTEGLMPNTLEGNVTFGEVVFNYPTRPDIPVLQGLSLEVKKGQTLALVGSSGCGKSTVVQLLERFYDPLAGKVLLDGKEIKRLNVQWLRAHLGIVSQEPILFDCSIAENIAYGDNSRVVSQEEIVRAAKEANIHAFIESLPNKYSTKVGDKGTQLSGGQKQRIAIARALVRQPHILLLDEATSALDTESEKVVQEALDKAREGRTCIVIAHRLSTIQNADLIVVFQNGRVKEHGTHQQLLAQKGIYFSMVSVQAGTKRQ

Row | MDR1 ER (MDR1 (P-glycoprotein)) | Human liver microsomes CLhep [1] [mL/min/kg] | SMILES
1 | 42 |  | CCNc1nc(Nc2cc(C3(C)CCn4ncnc43)nn2C2CC2)ncc1C(F)(F)F (single isomer, unassigned) [Compound 172]
2 |  | 0 | CNc1nc(Nc2cn(C(C)(C)c3ncn(C)n3)nc2C)ncc1C(F)(F)F [Compound 218]
